Source: US20170305882A1, “BENZYL SUBSTITUTED INDAZOLES AS BUB1 KINASE INHIBITORS” (Bayer Pharma Aktiengesellschaft, priority 2014, published 2017)
Where a name gives a salt, the structure may show the parent alone. Read-outs that look alike come from different tables or passages of the source.

What was measured:
[1] = Stability in buffer at various pH values (HPLC detection); type: physicochemical; conditions: for Stability pH4: % Test Compound after 4 h [F(t = 4 h) × 100/F(t = 0 h)]: pH 4, 4 h; for Stability pH4: % Test Compound after 4 h [F(t = 4 h) × 100/F(t = 0 h)] / Stability pH7.4: % Test Compound after 4 h [F(t = 4 h) × 100/F(t = 0 h)]: 37° C., prodrug remaining; for Stability pH7.4: % Test Compound after 4 h [F(t = 4 h) × 100/F(t = 0 h)]: pH 7.4, 4 h; for recovery at 60 min, 0.2 mg/mL / recovery at 120 min, 0.2 mg/mL / recovery at 240 min, 0.2 mg/mL / recovery at 1440 min, 0.2 mg/mL: read-out: Recovery (Assay 6, prodrug stability)
Protocol: Stability in Buffer at Various pH Values (HPLC Detection)
0.3 mg of the test compound was solved in 0.1 ml dimethylsulfoxide and 0.4 ml acetonitrile. For complete dissolution the HPLC vial with the sample solution was sonified for about 20 seconds. Then 1.0 ml of the respective buffer solution was added and the sample was again treated in the ultrasonic bath.
Buffer Solutions Used: • pH 4.0: Fluka buffer, Order No. 33643 (11.76 g citric acid, 2.57 g sodium chloride and 2.72 g sodium hydroxide)
pH 7.4: 90 g of sodium chloride, 13.61 g of potassium dihydrogen phosphate and 83.35 g of 1 M sodium hydroxide solution were made up to 1 L with Millipore water and then diluted 1:10.
10 μl portions of the sample solution were analysed by HPLC at different times (0 h, 1 h, 2 h, 4 h and 24 h) at 37° C. The peak areas in percentage were used for quantification.
Agilent 1100 with DAD (G1315B), binary pump (G1312A), autosampler (G1329A), column oven (G1316A), thermostat (G1330B); column: Kromasil 100 C18, 250 mm×4 mm, 5 μm; column temperature: 37° C.; eluent A: water+5 ml of perchloric acid/litre, eluent B: acetonitrile.
The ratios of the peak area (F) at different times in relation to the peak area at the starting point are shown in Table 3 for representative examples: […]

[2] = target: T1, (recombinant) catalytic domain of human Bub1 (amino acids 704-1085) (Homo sapiens, UniProt O43683); assay: Equilibrium probe competition assay (TR-FRET kinase binding assay); conditions: read-out: IC50 (Assay 5, probe competition)
T1 construct: catalytic domain of human Bub1 (amino acids 704-1085); 6xHis (N); made in house; host or cells: Hi5 insect cells
Source text: Equilibrium Probe Competition Assay:
Bub1 binding affinity of compounds described in the present invention were quantified using a time-resolved fluorescence energy transfer (TR-FRET) kinase binding assay which measures displacement of the synthetic fluorescent probe 5-[({2-[2-({2-[1-(4-ethoxy-2,6-difluorobenzyl)-1H-indazol-3-yl]-4-(pyridin-4-ylamino)pyrimidin-5-yl}oxy)ethoxy]ethyl}carbamothioyl)amino]-2-(6-hydroxy-3-oxo-3H-xanthen-9-yl)benzoic acid (5-5-1) by the (recombinant) catalytic domain of human Bub1 (amino acids 704-1085). The enzyme was expressed in Hi5 insect cells with N-terminal 6×His/AviTag@ seqences, purified by affinity-(Ni-NTA) and size exclusion chromatography and site-specific biotinylated ex-vivo using a commercially available kit (Avidity).
In a typical assay 11 different concentrations of each compound (0.1 nM, 0.33 nM, 1.1 nM, 3.8 nM, 13 nM, 44 nM, ˜0.15 μM, ˜0.51 μM, ˜1.7 μM, 5.9 μM and 20 μM) were tested in duplicate within the same microtiter plate. To this end, 100-fold concentrated compound solutions (in DMSO) were made by serial dilution (1:3.4) of freshly prepared 2 mM stocks in a clear low volume 384-well source microtiter plate (Greiner Bio-One, Frickenhausen, Germany), from which 50 nl of compounds were transferred into a black low volume test microtiter plate from the same supplier. Subsequently 2 μL of a solution containing biotinylated Bub1 (the final concentration of Bub1 was adjusted depending on the activity of the enzyme lot in order to be within the linear dynamic range of the assay: typically ˜200 pM were used) and 1 nM Streptavidin Terbium Cryptate (Cisbio, No. 610SATLB) in aqueous assay buffer [50 mM Tris/HCl pH 7.5, 200 mM potassium chloride (KCl), 1.0 mM dithiothreitol (DTT), 0.1 mM sodium ortho-vanadate, 1% (v/v) glycerol, 0.01% (w/v) bovine serum albumine (BSA), 0.005% (v/v) Triton X-100 (Sigma), were added to the compounds in the test plate and the mixture was incubated for 15 min at 22′C to allow pre-equilibration of the putative enzyme-inhibitor complexes before the start of the probe competition reaction, which was initiated by the addition of 3 μL 1.67-fold concentrated solution (in assay buffer) of 5-5-1 (final concentration: 1.5 nM). The resulting mixture (5 μL final volume) was Incubated at 220 during 0, 15, 30, 60, 120, 240 and 1440 min. After each time point the resonance energy transfer from the Streptavidin Tb cryptate to the 3′,6′-dihydroxy-3H-spiro[2-benzofuran-1,9′-xanthen]-3-one moiety of 5-5-1 was measured in order to quantify the amount of fluorescent probe displaced by the test compounds. To this end, the fluorescence emissions at 520 nm and 490 nm after excitation at 330-350 nm were measured in a Pherastar FS TR-FRET plate reader, (BMG Lab technologies, Offenburg, Germany) and the ratio of the emissions (520 nm/490 nm) was taken as Indicator for the amount of Bub1/5-5-1 equilibrium complexes. The data were normalized using two sets of control wells for high-(=enzyme reaction without inhibitor=0%=Minimum inhibition) and low-(=all assay components without enzyme=100%=Maximum inhibition) Bub1 activity. IC50 values were calculated by fitting the normalized inhibition data to a 4-parameter logistic equation (Minimum, Maximum, IC50, Hill; Y=Max+(Min−Max)/(1+(X/IC50)Hill)).

SMILES	Stability pH4: % Test Compound after 4 h [F(t = 4 h) × 100/F(t = 0 h)] [1] [%]	Stability pH7.4: % Test Compound after 4 h [F(t = 4 h) × 100/F(t = 0 h)] [1] [%]	recovery at 60 min, 0.2 mg/mL [1] [%]	recovery at 120 min, 0.2 mg/mL [1] [%]	recovery at 240 min, 0.2 mg/mL [1] [%]	recovery at 1440 min, 0.2 mg/mL [1] [%]	IC50 ([2]; Time 15 min) [nM]	IC50 ([2]; Time 30 min) [nM]	IC50 ([2]; Time 60 min) [nM]	IC50 ([2]; Time 90 min) [nM]	IC50 ([2]; Time 120 min) [nM]	IC50 ([2]; Time 240 min) [nM]	IC50 ([2]; Time 1440 min) [nM]
CCOc1cc(F)c(Cn2nc(-c3ncc(OCCCOC(=O)[C@H](C)NC(=O)[C@@H](N)CCCCN)c(Nc4ccnc(NC(C)=O)c4)n3)c3ccccc32)c(F)c1 [Example 4-1-2, 3-[(4-{[2-(acetylamino)pyridin-4-yl]amino}-2-[1-(4-ethoxy-2,6-difluorobenzyl)-1H-indazol-3-yl]pyrimidin-5-yl)oxy]propyl L-lysyl-L-alaninate, salt with trifiuoroaceticacid]	100	30	–	–	–	–	–	–	–	–	–	–	–
CCOc1cc(F)c(Cn2nc(-c3ncc(OCCCOC(=O)[C@H](C)NC(=O)[C@@H](N)CCCNC(=N)N)c(Nc4ccncc4Cl)n3)c3ccccc32)c(F)c1 [Example 4-1-8, 3-({4-[(3-chloropyridin-4-yl)amino]-2-[1-(4-ethoxy-2,6-difluorobenzyl)-1H-indazol-3-yl]pyrimidin-5-yl}oxy)propyl L-arginyl-L-alaninate]	100	56	–	–	–	–	–	–	–	–	–	–	–
CCOc1cc(F)c(Cn2nc(-c3ncc(OCCCOC(=O)[C@H](C)NC(=O)[C@@H](N)CCCCN)c(Nc4ccnc(C(F)F)c4)n3)c3ccccc32)c(F)c1 [Example 4-1-1, 3-[(4-{[2-(difluoromethyl)pyridin-4-yl]amino}-2-[1-(4-ethoxy-2,6-difluorobenzyl)-1H-Indazol-3-yl]pyrimidin-5-yl)oxy]propyl L-lysyl-L-alaninate, salt with trifluoroaceticacid]	100	32	76	57	32	0	1.4	1.5	1.4	1.5	1.3	1.5	2
CCOc1cc(F)c(Cn2nc(-c3ncc(OCCCOC(=O)[C@H](C)NC(=O)[C@@H](N)CCCCN)c(Nc4ccncc4Cl)n3)c3ccccc32)c(F)c1 [Example 4-1-5, 3-({4-[(3-chloropyridin-4-yl)amino]-2-[1-(4-ethoxy-2,6-difluorobenzyl)-1H-indazol-3-yl]pyrimidin-5-yl}oxy)propyl L-lysyl-L-alaninate, salt with trifluoroaceticacid]	101	42	81	65	42	0	1.5	0.82	0.6	0.51	0.46	0.27	0.25
CCOc1cc(F)c(Cn2nc(-c3ncc(OCCCOC(=O)[C@@H](NC(=O)[C@@H](N)CCCCN)C(C)C)c(Nc4ccncc4Cl)n3)c3ccccc32)c(F)c1 [Example 4-1-9, 3-({4-[(3-chloropyridin-4-yl)amino]-2-[1-(4-ethoxy-2,6-difluorobenzyl)-1H-indazol-3-yl]pyrimidin-5-yl}oxy)propyl L-lysyl-L-valinate]	99	99	–	–	–	–	–	–	–	–	–	–	–
CCOc1cc(F)c(Cn2nc(-c3ncc(OCCCOC(=O)[C@H](C)NC(=O)[C@H](N)CCCCN)c(Nc4cc(C)ncc4C)n3)c3ccccc32)c(F)c1 [Example 4-1-6, 3-({4-[(2,5-dimethylpyridin-4-yl)amino]-2-[1-(4-ethoxy-2,6-difluorobenzyl)-1H-indazol-3-yl]pyrimidin-5-yl}oxy)propyl D-lysyl-L-alaninate, salt with trifluoroaceticacid]	101	53	–	–	–	–	–	–	–	–	–	–	–
CCOc1cc(F)c(Cn2nc(-c3ncc(OCCCOC(=O)[C@H](C)NC(=O)[C@@H](N)CCCCN)c(Nc4cc(C)ncc4C)n3)c3ccccc32)c(F)c1 [Example 4-1-7, 3-({4-[(2,5-dimethylpyridin-4-yl)amino]-2-[1-(4-ethoxy-2,6-difluorobenzyl)-1H-indazol-3-yl]pyrimidin-5-yl}oxy)propyl L-lysyl-L-alaninate, salt with trifluoroaceticacid]	99	43	–	–	–	–	–	–	–	–	–	–	–
CCOc1cc(F)c(Cn2nc(-c3ncc(OCCCOC(=O)[C@H](C)NC(=O)[C@@H](N)CCCNC(=N)N)c(Nc4ccnc(NC(C)=O)c4)n3)c3ccccc32)c(F)c1 [Example 4-1-4, 3-[(4-{[2-(acetylamino)pyridin-4-yl]amino}-2-[1-(4-ethoxy-2,6-difluorobenzyl)-1H-indazol-3-yl]pyrimidin-5-yl)oxy]propyl L-arginyl-L-alaninate, salt with trifiuoroaceticacid]	100	53	86	73	53	3	2.8	0.58	0.61	0.55	0.54	0.32	0.33
CCOc1cc(F)c(Cn2nc(-c3ncc(OCCCOC(=O)[C@H](C)NC(=O)[C@H](N)CCCCN)c(Nc4ccnc(NC(C)=O)c4)n3)c3ccccc32)c(F)c1 [Example 4-1-3, 3-[(4-{[2-(acetylamino)pyridin-4-yl]amino}-2-[1-(4-ethoxy-2,6-difluorobenzyl)-1H-indazol-3-yl]pyrimidin-5-yl)oxy]propyl D-lysyl-L-alaninate, salt with trifiuoroaceticacid]	100	31	75	56	31	0	1.1	0.65	0.42	0.27	0.25	0.2	0.17
